The subject of the test is MV4-11 cells. In words: Cell proliferation assay (ATPlite). The test is classed as cell-based. Conditions: Homo sapiens, MV4-11, 120 h; MV-411 cells, five days; read-out: In vitro whole cell potency in MV-411 cells, (IC50). As to the method:
(iv) Cell Proliferation Assay
MV4-11 cells were seeded into a 96-well plate at 1,000 cells/well in 150 μl medium (Alpha-MEM containing 10% FBS, 100 μg/ml Normocin, and 50 μg/ml Gentamycin, Invitrogen). A HP D300 digital dispenser was used to dose cells with DMSO or test compounds across a 10-point range of concentrations (high dose of 10 μM), and cultures were grown in a humidified 5% CO2 incubator at 37° C. After five days, plates were removed from the incubator and equilibrated to room temperature. An equal volume of ATPlite assay reagent was added to each well, and samples were processed according to manufacturer's instructions (Perkin Elmer). Luminescent signal was measured using an Envision plate reader equipped with a US-Luminescence detector.

pIC50: −log10 of the molar value.

`CN1CCN(c2cc(F)c(C3=CCOCC3)cc2NC(=O)c2c[nH]c(=O)cc2C(F)(F)F)CC1` [Example 22, N-[5-(3,6-dihydro-2H-pyran-4-yl)-4-fluoro-2-(4-methylpiperazin-1-yl)phenyl]-6-oxo-4-(trifluoromethyl)-1H-pyridine-3-carboxamide]: the negative-log IC50 (pIC50) is 5.28.
The value for `CN1CCN(c2cc(F)c(C3=CCNCC3)cc2NC(=O)c2c[nH]c(=O)cc2C(F)(F)F)CC1` [Example 23, N-[4-fluoro-2-(4-methylpiperazin-1-yl)-5-(1,2,3,6-tetrahydropyridin-4-yl)phenyl]-6-oxo-4-(trifluoromethyl)-1H-pyridine-3-carboxamide] was less than 5.00; that for `CN1CCN(c2cc(F)ccc2NC(=O)c2c[nH]c(=O)cc2C(F)(F)F)CC1` [Example 24, N-[4-fluoro-2-(4-methylpiperazin-1-yl)phenyl]-6-oxo-4-(trifluoromethyl)-1H-pyridine-3-carboxamide] was less than 5.00; that for `Cc1cc(C(=O)Nc2cc(-c3cnc(N4CCOCC4)nc3)c(F)cc2N2C[C@@H](C)N(C)[C@@H](C)C2)ccc1F` [Example 25, 4-fluoro-N-[4-fluoro-5-(2-morpholin-4-ylpyrimidin-5-yl)-2-[(3R,5S)-3,4,5-trimethylpiperazin-1-yl]phenyl]-3-methylbenzamide] was less than 5.00.
For `C[C@@H]1CN(c2cc(F)ccc2NC(=O)c2c[nH]c(=O)cc2C(F)(F)F)C[C@H](C)N1C` [Example 26, N-[4-fluoro-2-[(3R,5S)-3,4,5-trimethylpiperazin-1-yl]phenyl]-6-oxo-4-(trifluoromethyl)-1H-pyridine-3-carboxamide], the pIC50 is less than 5.00.
Under `Cc1cc(C(=O)Nc2cc(-c3cnc(N4CCOCC4)nc3)c(F)cc2N2C[C@@H](C)N(C)[C@@H](C)C2)cc(C)c1F` [Example 28, 4-fluoro-N-[4-fluoro-5-(2-morpholin-4-ylpyrimidin-5-yl)-2-[(3R,5S)-3,4,5-trimethylpiperazin-1-yl]phenyl]-3,5-dimethylbenzamide] stands 5.56; under `C[C@@H]1CN(c2cc(F)c(-c3ccc(N4CCOCC4)cc3)cc2NC(=O)c2c[nH]c(=O)cc2C(F)(F)F)C[C@H](C)N1C` [Example 29, N-[4-fluoro-5-(4-morpholin-4-ylphenyl)-2-[(3R,5S)-3,4,5-trimethylpiperazin-1-yl]phenyl]-6-oxo-4-(trifluoromethyl)-1H-pyridine-3-carboxamide], 7.35; under `CN1CCN(c2cc(F)c(-c3ccc(OC4CCOCC4)nc3)cc2NC(=O)c2c[nH]c(=O)cc2C(F)(F)F)CC1` [Example 30, N-[4-fluoro-2-(4-methylpiperazin-1-yl)-5-[6-(oxan-4-yloxy)pyridin-3-yl]phenyl]-6-oxo-4-(trifluoromethyl)-1H-pyridine-3-carboxamide], 6.68.
Under `C[C@@H]1CN(c2cc(F)c(-c3cnc(C#N)nc3)cc2NC(=O)c2c[nH]c(=O)cc2C(F)(F)F)C[C@H](C)N1C` [Example 31, N-[5-(2-cyanopyrimidin-5-yl)-4-fluoro-2-[(3S,5R)-3,4,5-trimethylpiperazin-1-yl]phenyl]-6-oxo-4-(trifluoromethyl)-1H-pyridine-3-carboxamide] stands 6.24; under `C[C@@H]1CN(c2cc(F)c(-c3ccc(N4CCOCC4)nc3)cc2NC(=O)c2c[nH]c(=O)cc2C(F)(F)F)C[C@H](C)N1C` [Example 32, N-[4-fluoro-5-(6-morpholin-4-ylpyridin-3-yl)-2-[(3S,5R)-3,4,5-trimethylpiperazin-1-yl]phenyl]-6-oxo-4-(trifluoromethyl)-1H-pyridine-3-carboxamide], 7.17; under `Cc1ncc(-c2cc(NC(=O)c3c[nH]c(=O)cc3C(F)(F)F)c(N3C[C@@H](C)N(C)[C@@H](C)C3)cc2F)cn1` [Example 33, N-[4-fluoro-5-(2-methylpyrimidin-5-yl)-2-[(3S,5R)-3,4,5-trimethylpiperazin-1-yl]phenyl]-6-oxo-4-(trifluoromethyl)-1H-pyridine-3-carboxamide], 7.14.
For `C[C@@H]1CN(c2cc(F)c(-c3cnc(N4CCOCC4)nc3)cc2NC(=O)c2c[nH]c(=O)cc2C(F)F)C[C@H](C)N1C` [Example 34, 4-(difluoromethyl)-N-[4-fluoro-5-(2-morpholin-4-ylpyrimidin-5-yl)-2-[(3S,5R)-3,4,5-trimethylpiperazin-1-yl]phenyl]-6-oxo-1H-pyridine-3-carboxamide], the pIC50 was 7.42.
As for `C[C@@H]1CN(c2cc(F)c(-c3cccnc3)cc2NC(=O)c2c[nH]c(=O)cc2C(F)(F)F)C[C@H](C)N1C` [Example 35, N-[4-fluoro-5-pyridin-3-yl-2-[(3R,5S)-3,4,5-trimethylpiperazin-1-yl]phenyl]-6-oxo-4-(trifluoromethyl)-1H-pyridine-3-carboxamide], the negative-log IC50 (pIC50) was 6.17.
Under `C[C@@H]1CN(c2cc(F)c(-c3ccncc3)cc2NC(=O)c2c[nH]c(=O)cc2C(F)(F)F)C[C@H](C)N1C` [Example 36, N-[4-fluoro-5-pyridin-4-yl-2-[(3R,5S)-3,4,5-trimethylpiperazin-1-yl]phenyl]-6-oxo-4-(trifluoromethyl)-1H-pyridine-3-carboxamide] stands 6.07; under `CN(C)[C@@H]1CCN(c2cc(F)c(-c3cnc(N4CCOCC4)nc3)cc2NC(=O)c2c[nH]c(=O)cc2C(F)(F)F)C1` [Example 37, N-[2-[(3R)-3-(dimethylamino)pyrrolidin-1-yl]-4-fluoro-5-(2-morpholin-4-ylpyrimidin-5-yl)phenyl]-6-oxo-4-(trifluoromethyl)-1H-pyridine-3-carboxamide], 7.27; under `CN(C)[C@H]1CCN(c2cc(F)c(-c3cnc(N4CCOCC4)nc3)cc2NC(=O)c2c[nH]c(=O)cc2C(F)(F)F)C1` [Example 38, N-[2-[(3S)-3-(dimethylamino)pyrrolidin-1-yl]-4-fluoro-5-(2-morpholin-4-ylpyrimidin-5-yl)phenyl]-6-oxo-4-(trifluoromethyl)-1H-pyridine-3-carboxamide], 5.39.
With `CN1CCN(c2cc(F)c(-c3cnc(N(C)C)nc3)cc2NC(=O)c2c[nH]c(=O)cc2C(F)(F)F)CC1` [Example 40, N-[5-[2-(dimethylamino)pyrimidin-5-yl]-4-fluoro-2-(4-methylpiperazin-1-yl)phenyl]-6-oxo-4-(trifluoromethyl)-1H-pyridine-3-carboxamide], the pIC50 is less than 5.00.
Under `CN1CCN(c2cc(F)c(-c3ccc(CN4CCOCC4)nc3)cc2NC(=O)c2c[nH]c(=O)cc2C(F)(F)F)CC1` [Example 41, N-[4-fluoro-2-(4-methylpiperazin-1-yl)-5-[6-(morpholin-4-ylmethyl)pyridin-3-yl]phenyl]-6-oxo-4-(trifluoromethyl)-1H-pyridine-3-carboxamide] stands 6.67; under `CC1CN(c2cc(F)c(-c3cccc(CN4CCOCC4)c3)cc2NC(=O)c2c[nH]c(=O)cc2C(F)(F)F)CCN1C` (stereo not shown) [Example 45, N-(4-(3,4-dimethylpiperazin-1-yl)-6-fluoro-3′-(morpholinomethyl)-[1,1′-biphenyl]-3-yl)-6-oxo-4-(trifluoromethyl)-1,6-dihydropyridine-3-carboxamide], 6.31; under `CN1CCN(c2cc(F)c(-c3ccnc(N4CCOCC4)c3)cc2NC(=O)c2c[nH]c(=O)cc2C(F)(F)F)CC1` [Example 46, N-(4-fluoro-2-(4-methylpiperazin-1-yl)-5-(2-morpholinopyridin-4-yl)phenyl)-6-oxo-4-(trifluoromethyl)-1,6-dihydropyridine-3-carboxamide], 5.54.
With `CN1CCN(c2cc(F)c(-c3cncc(CNC4CCOCC4)c3)cc2NC(=O)c2c[nH]c(=O)cc2C(F)(F)F)CC1` [Example 48, N-(4-fluoro-2-(4-methylpiperazin-1-yl)-5-(5-(((tetrahydro-2H-pyran-4-yl)amino)methyl)pyridin-3-yl)phenyl)-6-oxo-4-(trifluoromethyl)-1,6-dihydropyridine-3-carboxmaide], the pIC50 was less than 5.00.
On to `CN1CCN(c2cc(F)c(-c3cncc(CN[C@@H]4CCOC4)c3)cc2NC(=O)c2c[nH]c(=O)cc2C(F)(F)F)CC1` [Example 49, (R)—N-(4-fluoro-2-(4-methylpiperazin-1-yl)-5-(5-(((tetrahydrofuran-3-yl)amino)methyl)pyridin-3-yl)phenyl)-6-oxo-4-(trifluoromethyl)-1,6-dihydropyridine-3-carboxamide], for which the negative logarithm of the IC50 (pIC50) was less than 5.00.
Under `C[C@@H]1CN(c2cc(F)c(-c3cccc(CN4CCOCC4)c3)cc2NC(=O)c2c[nH]c(=O)cc2C(F)(F)F)CCN1C` [Example 50, (R)—N-(4-(3,4-dimethylpiperazin-1-yl)-6-fluoro-3′-(morpholinomethyl)-[1,1′-biphenyl]-3-yl)-6-oxo-4-(trifluoromethyl)-1,6-dihydropyridine-3-carboxamide] stands 5.54; under `C[C@H]1CN(c2cc(F)c(-c3cccc(CN4CCOCC4)c3)cc2NC(=O)c2c[nH]c(=O)cc2C(F)(F)F)CCN1C` [Example 51, (S)—N-(4-(3,4-dimethylpiperazin-1-yl)-6-fluoro-3′-(morpholinomethyl)-[1,1′-biphenyl]-3-yl)-6-oxo-4-(trifluoromethyl)-1,6-dihydropyridine-3-carboxamide], 6.41.
Take `C[C@@H]1CN(c2cc(F)c(-c3cccc(CN4CCOCC4)c3)cc2NC(=O)c2c[nH]c(=O)cc2C(F)(F)F)C[C@H](C)N1C` [Example 52, N-(6-fluoro-3′-(morpholinomethyl)-4-((3R,5S)-3,4,5-trimethylpiperazin-1-yl)-[1,1′-biphenyl]-3-yl)-6-oxo-4-(trifluoromethyl)-1,6-dihydropyridine-3-carboxamide]: the negative-log IC50 (pIC50) was less than 5.00.

These data come from US11319299B2, “Substituted carboxamides as inhibitors of WDR5 protein-protein binding” (PROPELLON THERAPEUTICS INC., priority 2016, dated 2022).
